Columns and labels:
[1] = tested on: neutrophils; experiment: Neutrophil chemotaxis assay, C5a co-chemotactic activity of DBP; format: cell-based, human
Source text: Isolation of human neutrophils Neutrophils, serum, and plasma were isolated from the venous blood of healthy, medication-free, paid volunteers who gave informed consent. The Institutional Review Board of Stony Brook University approved this procedure. These procedures have been described in detail previously (Kew et al., 1995a).
Neutrophil chemotaxis assay Cell movement was quantitated using a 48 well microchemotaxis chamber (Neuroprobe, Cabin John, Md.) and 5.0 μm pore size cellulose nitrate filters (purchased from Neuroprobe) as previously described (Kew et al., 1995a). Cell suspensions and chemotactic factors were prepared and/or diluted in the chemotaxis assay buffer (Hank's balanced salt solution supplemented with 10 mM HEPES (pH 7.4) and 1% bovine serum albumin). Cell movement was quantitated microscopically by measuring the distance in microns (μm) that the leading front of cells had migrated into the filter according to the method described by Zigmond and Hirsch (1973). In each experiment, five fields per duplicate filter were measured at 400× magnification.

[2] = tested on: neutrophils; experiment: Quantitative binding of radioiodinated DBP to neutrophils; design: species or system human; conditions: DBP saturated with the ligand; 100 nM 125I-DBP, 37° C. 60 min
Experimental: Quantitative binding of radioiodinated DBP to neutrophils Purified DBP (200-400 μg) was iodinated using Na-^125I (Dupont-NEN, Wilmington, Del.) as previously described (DiMartino and Kew, 1999). Neutrophils (10^7 cells/sample) were incubated with 100 nM ^125I-DBP in Hank's balanced salt solution (HBSS) containing 0.1% bovine serum albumin (BSA) (assay buffer) in a total volume of 100 μl. Samples were incubated at 37° C. for 60 min after which cells were placed on ice and then washed twice with ice-cold assay buffer (1.0 ml each) and centrifuged for 7 min at 200× g at 2° C. The cell pellets were then counted for total radioactivity in a gamma counter. All samples were assayed in triplicate or quadruplicate.

[3] = tested on: Alkaline phosphatase activity on the plasma membrane of viable neutrophils; experiment: Neutrophil alkaline phosphatase assay (DiFMUP); format: cell-based, human; conditions: 5×10^6 cells pretreated with 10 nM 1,25(OH)2D3 or 10 μM SOV; untreated 11,107±1335 units
Experimental: Neutrophil alkaline phosphatase assay Alkaline phosphatase activity on the plasma membrane of viable neutrophils was measured using the fluorescent substrate 6,8-difluoro-4-methylumbelliferyl phosphate (DiFMUP) and the EnzChek Phosphatase Assay Kit (Molecular Probes, Eugene, Oreg.). Neutrophils (5×10^6 cells) were suspended in 50 μl of 0.1M sodium acetate (pH 5.0) and were immediately added to microtiter plates containing 50 μl of 0.2mM DiFMUP substrate and incubated for 5 min at 22° C. in the dark. A standard curve was generated using known amounts of the fluorescent compound 6,8-difluoro-7-hydroxy-4-methylcoumarin. Fluorescence was measured at 358 nm excitation and 455 nm emission using a SpectraMax M2 microtiter plate reader (Molecular Devices, Sunnydale, Calif.).

[4] = tested on: U937-C5aR cells; experiment: Chemotaxis assay, U937-C5aR cells; format: cell-based, human; conditions: Example 6
Experimental: Neutrophils (4×10^6/ml) or U937-C5aR cells (6×10^6/ml) in chemotaxis buffer were treated for 15 min at 22° C. with 20 μg/ml of anti-CD36, anti-CD47 or anti-gC1qR. Cells were then allowed to respond to either 2.5% complement-activated serum (ZAS) or 1 nM purified C5a for 120 min (FIG. 14A. U937-C5aR cells) or 25 min (Panel B. neutrophils) at 37° C. Numbers represent mean±SEM, n=4.
U937 cells were originally obtained from the American Type Culture Collection and transfected with either the human C5a receptor or the empty plasmid vector as detailed previously (16). U937 cells were cultured at 37° C., 5% CO2 in RPMI 1640 containing 10% FBS (HyClone) and […] active G418 (Invitrogen Life Technologies) and maintained at a density between 2×10^5 and 1.5×10^6/ml.
Serum and citrated plasma (1 ml each) were incubated for 1 h at 37° C. with 10 mg of zymosan. Particulate matter was removed by centrifugation (15,000× g) for 5 min at 4° C. using a microfuge. Samples were then aliquoted and frozen at −20° C.
Cell movement was quantitated using a 48-well microchemotaxis chamber (NeuroProbe) and 5.0-μm pore size cellulose nitrate filters (purchased from NeuroProbe) as previously described (13). Cell movement was quantitated microscopically by measuring the distance in micrometers that the leading front of cells had migrated into the filter according to the method described by Zigmond and Hirsch (17). In each experiment, five fields per duplicate filter were measured at ×400 magnification. The value of the background controls for random cell movement (cells responding to buffer) has been subtracted in all cases so that the data are presented as net movement in micrometers.

[5] = tested on: differentiated HL-60 cells; experiment: Chemotaxis assay, differentiated HL-60 cells responding to C5a, C5a plus DBP or ZAS; format: cell-based, Human; conditions: differentiated HL-60 cells; 100 pM C5a (FIG. 1: 25-200 pM) plus 50 nM of indicated DBP, 60 min at 37° C
Experimental: Cells (6×10^6/ml) were resuspended in chemotaxis buffer and treated either with chemotaxis buffer (control), 1 μM of peptide 1 (130-152), or 1 μM of peptide 2 (150-172) for 30 min at room temperature. The chemotactic response of differentiated HL-60 cells to 100 pM C5a alone, C5a plus 50 nM full-length natural DBP or 1% zymosan-activated serum (ZAS) was measured for 60 minutes at 37° C. Numbers represent net cell movement in 60 min, mean±SEM of 3 experiments.
(§1) Cells and cell culture: Human promyelocytic cell line HL-60 was obtained from ATCC (Rockville, Md.) and cultured in RPMI 1640 medium supplemented with 10% FBS. Differentiation of HL-60 cells was initiated with 250 μM Bt2cAMP for 48 hours.
Chemotaxis assay. Chemotaxis was performed as described previously (see Kew, R. R. et al., J. Leukoc. Biol. 58, 55-58 (1995)). In brief, 35 μl of C5a (0.01 to 1 nM) in the chemotaxis buffer (HBSS with 1% BSA, 10 mM HEPES) were placed in duplicate in the lower chamber of a 48-well chamber (Neuroprobe, Md.). The lower compartments were covered with a 5 μm pore cellulose nitrate filter and then 50 μl of the cell suspension (2.5×10^5/well) was pipetted into the upper compartments. The chemotactic chamber was incubated for 1 hour at 37° C. in a humidified incubator with 5% CO2. Following incubation, the filter was fixed, stained and mounted on a microscope slide. Cell movement was measured as the distance in microns that the leading front of the cells had migrated into the filter (see Zigmond, S. et al., J. Exp. Med. 137, 387 (1973)).

[6] = tested on: differentiated HL-60 cells; experiment: Ligand-induced calcium mobilization (Fluo-3 AM) in differentiated HL-60 cells; format: cell-based, Human; conditions: differentiated HL-60 cells incubated 30 min with 50 nM of indicated DBP, then C5a
Experimental: as §1
Ligand-induced calcium mobilization. Calcium mobilization studies were performed using the Fluo-3 AM probe as described previously (see Merritt, J. E. et al., Biochem. J. 269, 513-519 (1990)). Differentiated HL-60 cells (1×10^7 cells/ml) were resuspended in HBSS-1% BSA containing 2 μM Fluo-3 AM (Molecular Probes, Eugene, Oreg.) and incubated at 37° C. for 40 minutes. Cells incubated without the dye were used as a control to measure autofluorescence (Fmin). Following the dye uptake, cells were washed twice then suspended at 5×10^6 cells/ml in HBSS containing 1% BSA. Half of the cell suspension was treated with 50 nM DBP for 30 min at room temperature, the other half served as the untreated control. For each measurement, 400 μl of cell suspension (with or without DBP) was added to a cuvette and stimulated with various concentrations of purified C5a at room temperature (22-24° C.). Fluorescence was then measured immediately using a Perkin-Elmer LS-5 fluorometer at 505 nm excitation, 526 nm emission for Fluo-3 AM. Fmax was measured by treating labeled cells with 60 μM digitonin. Intracellular free calcium concentrations were calculated using the following formula: (Ca^2+)=Kd (F−Fmin)/(Fmax−F), where Kd=325 nM for Fluo-3 according to manufacturer (Molecular Probes).

[7] = tested on: U937-C5aR cells; experiment: C5a-induced intracellular calcium mobilization in U937-C5aR cells; format: cell-based, human; conditions: FIG. 11B, 12; 0.5 μM DBP peptide, 50 nM DBP, 0.1 nM C5a
Experimental: FIG. 11A and FIG. 11B show the effect of DBP on C5a-induced intracellular calcium mobilization in U937-C5aR cells. U937-C5aR cells (10^7 cells/ml) were resuspended in HBSS-1% BSA containing 2 μM Fluo-3 AM and incubated at 37° C. for 40 minutes. Cells incubated without the dye were used as a control to measure autofluorescence (Fmin). Following the dye uptake, cells were washed twice then suspended at 5×10^6 cells/ml in HBSS containing 1% BSA. For the pretreatment experiments, cells were incubated for 30 min at 22° C. with 50 nM DBP or 0.5 μM DBP peptide 1 (p1). For each measurement, 400 μl of cell suspension was added to a cuvette and stimulated with the indicated concentration of C5a (FIG. 11A) or 0.1 nM C5a (FIG. 11B). Fluorescence was then measured immediately using a Perkin-Elmer LS-5 fluorometer at 505 nm excitation, 526 nm emission for Fluo-3 AM. Fmax was measured by treating labeled cells with 60 μM digitonin. Intracellular free calcium concentrations were calculated using the following formula: (Ca^2+)=Kd (F−Fmin)/(Fmax−F), where Kd=325 nM for Fluo-3 according to manufacturer (Molecular Probes). Data are presented as mean±SEM (n=4-6) of the increase in intracellular calcium concentration.
U937-C5aR cells (10^7 cells/ml) were resuspended in HBSS-1% BSA containing 2 μM Fluo-3 AM and incubated at 37° C. for 40 minutes. Cells incubated without the dye were used as a control to measure autofluorescence (Fmin). Following the dye uptake, cells were washed twice then suspended at 5×10^6 cells/ml in HBSS containing 1% BSA. Cells were incubated for 30 min at 22° C. with either 50 nM DBP or 0.5 μM DBP peptide. For each measurement, 400 μl of cell suspension was added to a cuvette and stimulated with 0.1 nM purified C5a. Fluorescence was then measured immediately using a Perkin-Elmer LS-5 fluorometer at 505 nm excitation, 526 nm emission for Fluo-3 AM. Fmax was measured by treating labeled cells with 60 μM digitonin. Intracellular free calcium concentrations were calculated using the following formula: (Ca2+)=Kd (F−Fmin)/(Fmax−F), where Kd=325 nM for Fluo-3 according to manufacturer (Molecular Probes)

Molecule: C=C1/C(=C\C=C2/CCC[C@]3(C)[C@@H]([C@H](C)CCCC(C)(C)O)CC[C@@H]23)C[C@@H](O)C[C@@H]1O [1,25(OH)2D3, 1,25(OH)2 Vitamin D3]
- neutrophil chemotaxis to optimal concentrations of C5a, formyl peptide, LTB4 or CXCL8 (IL-8) ([1]; 10 nM bound to DBP): does not alter neutrophil chemotaxis
- effect on co-chemotactic activity of DBP (neutrophil chemotaxis toward C5a) ([1]; ligand bound to DBP, 1,25(OH)2D3 100 nM): completely eliminated the co-chemotactic effect
- effect on binding of 125I-DBP to neutrophils [2]: did not alter DBP binding to neutrophils
- neutrophil AP activity [3]: not significantly altered

Molecule: [O-][Cl+2]([O-])O [chlorate, sodium chlorate]
- U937-C5aR chemotaxis to C-activated plasma ([4]; 2.5% C-activated plasma): not
- U937-C5aR chemotaxis to C-activated serum ([4]; 2.5% C-activated serum): significantly reduces
- U937-C5aR chemotaxis to 1 nM purified C5a (net movement) ([4]; treated cells, DBP-independent): 56+/−4.8 μm/120 min

Molecule: (1-112): truncated version of DBP domain I expressed in E. coli (LERGRDYEKNKVCKEFSHLGKEDFTSLSLVLYSRKFPSGT)
- enhancement of C5a-mediated chemotaxis (net cell movement) [5]: lack enhancing activity
- enhancement of intracellular Ca2+ flux in response to C5a [6]: lack enhancing activity

Molecule: (1-125): truncated version of DBP domain I expressed in E. coli (LERGRDYEKNKVCKEFSHLGKEDFTSLSLVLYSRKFPSGT)
- enhancement of C5a-mediated chemotaxis (net cell movement) [5]: lack enhancing activity
- enhancement of intracellular Ca2+ flux in response to C5a [6]: lack enhancing activity

Molecule: (1-150): truncated version of DBP domain I expressed in E. coli (LERGRDYEKNKVCKEFSHLGKEDFTSLSLVLYSRKFPSGT)
- enhancement of C5a-mediated chemotaxis (net cell movement) [5]: almost the same level of activity as full-length natural DBP
- enhancement of intracellular Ca2+ flux in response to C5a [6]: almost the same level of activity as full-length natural DBP

Molecule: (1-175): truncated version of DBP domain I expressed in E. coli (LERGRDYEKNKVCKEFSHLGKEDFTSLSLVLYSRKFPSGT)
- enhancement of C5a-mediated chemotaxis (net cell movement) [5]: almost the same level of activity as full-length natural DBP
- enhancement of intracellular Ca2+ flux in response to C5a [6]: almost the same level of activity as full-length natural DBP

Molecule: EAFRKDPKEYAN [peptide 3, DBP residues 130-141]
- block of the DBP-enhanced C5a calcium signal [7]: partially block

Molecule: Vitamin D
- effect on binding of 125I-DBP to neutrophils [2]: does not alter its ability to bind to neutrophils

Molecule: domain I & II: truncated reDBP, residues 1-378 (LERGRDYEKNKVCKEFSHLGKEDFTSLSLVLYSRKFPSGT)
- enhancement of C5a-mediated chemotaxis (net cell movement) [5]: significantly enhanced
- enhancement of intracellular Ca2+ flux in response to C5a [6]: significantly enhanced

Molecule: domain I: truncated reDBP, residues 1-191 (EAFRKDPKEYANQFMWEYST)
- enhancement of C5a-mediated chemotaxis (net cell movement) [5]: significantly enhanced
- enhancement of intracellular Ca2+ flux in response to C5a [6]: significantly enhanced

Molecule: peptide 5: DBP residues #135-146, printed as SEQ ID NO: 10; residues match the sequence of SEQ ID NO: 9 (NQFMWEYSTNYG)
- block of the DBP-enhanced C5a calcium signal [7]: partially block
